The text below walks through data of ChEMBL document CHEMBL2413049, “Design and synthesis of novel 1,25-dihydroxyvitamin D3 analogues having a spiro-oxetane fused at the C2 position in the A-ring” (Bioorg Med Chem, 2013).

In test [1] the target is T1, Vitamin D3 receptor (Bos taurus) (UniProt Q28037).
T1 sequence (whole entry): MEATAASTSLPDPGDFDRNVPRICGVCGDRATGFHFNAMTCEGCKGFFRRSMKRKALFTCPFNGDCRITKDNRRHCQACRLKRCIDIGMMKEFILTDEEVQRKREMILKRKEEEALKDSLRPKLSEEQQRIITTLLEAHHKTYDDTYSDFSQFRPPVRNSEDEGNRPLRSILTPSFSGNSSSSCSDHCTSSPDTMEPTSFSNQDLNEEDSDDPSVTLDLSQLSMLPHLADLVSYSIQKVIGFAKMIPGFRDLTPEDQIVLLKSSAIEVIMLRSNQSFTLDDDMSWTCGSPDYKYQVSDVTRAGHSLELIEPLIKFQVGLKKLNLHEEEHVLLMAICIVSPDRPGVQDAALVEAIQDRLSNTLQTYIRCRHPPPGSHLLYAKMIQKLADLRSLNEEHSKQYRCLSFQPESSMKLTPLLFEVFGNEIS
Nature of the test: Displacement of [3H]-1alpha,25 dihydroxyvitamin D3 from bovine thymus VDR after 60 mins relative to 1alpha,25-dihydroxyvitamin D3. On the technique in general: Displacement assays read how much labelled ligand stays bound in the presence of the test substance.

For test [2], the target named is T1, Vitamin D3 receptor (Bos taurus). Nature of the test: Binding affinity to bovine thymus VDR relative to 1alpha,25-dihydroxyvitamin D3.
The target of test [3] is T2, Vitamin D3 receptor (Homo sapiens) (UniProt P11473).
T2 sequence (whole entry): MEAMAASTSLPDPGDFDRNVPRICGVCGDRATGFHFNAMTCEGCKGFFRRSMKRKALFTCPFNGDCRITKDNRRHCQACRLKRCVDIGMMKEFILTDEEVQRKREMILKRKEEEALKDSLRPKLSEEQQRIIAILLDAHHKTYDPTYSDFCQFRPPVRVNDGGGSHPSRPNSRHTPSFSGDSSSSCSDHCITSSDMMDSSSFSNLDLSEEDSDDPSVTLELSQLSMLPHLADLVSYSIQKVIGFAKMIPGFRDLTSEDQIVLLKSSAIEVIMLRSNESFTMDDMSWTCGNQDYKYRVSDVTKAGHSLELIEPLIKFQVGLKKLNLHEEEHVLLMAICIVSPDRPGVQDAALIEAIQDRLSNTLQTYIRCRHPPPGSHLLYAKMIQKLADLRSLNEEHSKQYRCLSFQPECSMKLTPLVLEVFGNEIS
As to the kind of experiment: Binding affinity to VDR (unknown origin) relative to 1alpha,25-dihydroxyvitamin D3.

Each structure is given as a SMILES string.

Consider `C=C1/C(=C\C=C2/CCC[C@]3(C)[C@@H]([C@H](C)CCCC(C)(C)O)CC[C@@H]23)C[C@@H](O)C2(COC2)[C@H]1O`, for which the fold change (FC) in test [1] amounted to 0.002.
Same read-out and setting: for `C=C1/C(=C\C=C2/CCC[C@]3(C)[C@@H]([C@H](C)CCCC(C)(C)O)CC[C@@H]23)C[C@@H](O)C[C@@H]1O` the value was 100; for `C=C1/C(=C\C=C2/CCC[C@]3(C)[C@@H]([C@H](C)CCCC(C)(C)O)CC[C@@H]23)C[C@H](O)C2(COC2)[C@@H]1O`, 0.04.
With `C=C1/C(=C\C=C2/CCC[C@]3(C)[C@@H]([C@H](C)CCCC(C)(C)O)CC[C@@H]23)C[C@@H](O)[C@@H](C)[C@@H]1O`, the fold change (FC) in test [2] was 13.
The same measure, in the same setting: for `C=C1/C(=C\C=C2/CCC[C@]3(C)[C@@H]([C@H](C)CCCC(C)(C)O)CC[C@@H]23)C[C@@H](O)[C@H](C)[C@@H]1O` the value was 400.
Consider `C=C1/C(=C\C=C2/CCC[C@]3(C)[C@@H]([C@H](C)CCCC(C)(C)O)CC[C@@H]23)C[C@@H](O)C(C)(C)[C@@H]1O`, for which the fold change (FC) in test [3] was 3.
Take `C=C1/C(=C\C=C2/CCC[C@]3(C)[C@@H]([C@H](C)CCCC(C)(C)O)CC[C@@H]23)C[C@@H](O)C2(COC2)[C@@H]1O`: the fold change (FC) in test [1] is 5.
Same read-out and setting: next, `C=C1/C(=C\C=C2/CCC[C@]3(C)[C@@H]([C@H](C)CCCC(C)(C)O)CC[C@@H]23)C[C@H](O)C2(COC2)[C@H]1O`: 0.001.
